47 compounds from US10308617B2, “Triazole benzamide derivatives and the compositions and methods of treatment regarding the same” (An2H Discovery Limited, priority 2016, dated 2019) can be followed below.

For orientation: EC50 means the concentration needed to bring the measured effect to its halfway point.

The target in the test is Parkin (Homo sapiens, UniProt O60260). Description: Parkin pUB Auto-ubiquitinylation Assay (TR-FRET). In kind it is biochemical. The conditions noted are these: for EC50: Parkin activation, pUb activated Parkin, read-out: Auto-ubiq EC50 (μM) [Example 3]. The text has this: A Parkin pUB Auto-ubiquitinylation Assay is used to evaluate a compound's potency to activate Parkin's ability to Auto-ubiquitinylate itself.
The principle of this assay is that the E3 Ligase Parkin catalyzes the transfer of Ubiquitin to target proteins, but also has the ability to auto-ubiquitinylate itself. The phospho-Ubiquition (pUb) added to the assay alters the Parkin to a state where small molecule activators can enable the Parkin to auto-ubiquitinylate though the E1-E2 cascade reaction. The use of a Eu cryptate Ubiquition and anti 6His-d2 that binds to the His tagged Parkin will give a signal when the Eu cryptate Ubiquition is auto-ubiquitinylate onto the Parkin which can be monitored by TR-FRET.
Similar to the Activity-based probe assay in Example 2, screening for activating compounds can be distinguished from the controls as follows: • 100% activation signal=pUb activated Parkin+40 nM control activator in DMSO. • 0% activation signal=pUb activated Parkin+DMSO only. • Parkin activators can be identified by an increase of the 0% activation signal TR-FRET signal. Materials: • Assay Plate: White 384 well plate (Corning 3572) • Enzyme 1: E1 (Ubiquitin-activating enzyme/UBE1 Boston Biochem E-305) • Enzyme 2: E2 (UBcH7/Ube2L3 Boston Biochem E2-640) • Enzyme 3: Parkin-His tagged 203 μM (10.5 mg/ml) • pUb: Phospho-Ubiquitin (S65) (Boston Biochem U-102) • Eu Cryptate Reagent: Ubiquitin Eu (CisBio 61UBIKLA) • DMSO: DMSO (Sigma-34869-2.5L) • Reaction Buffer: 50 mM HEPES, 50 mM NaCl, 1 mM MgCl2, 0.005% Tween 20, 0.1% PF-127 (Fisher Scientific 50-310-494), pH 8.5 • Detection Buffer: 50 mM HEPES, 50 mM NaCl, 800 mM KF, 5 mM EDTA, 0.005% Tween 20, 0.1% PF-127, pH 8.5 • Detection Reagent Z: 13.4 nM Anti-6His-d2 in detection buffer • d2 Reagent: Anti-6His-d2 (CisBio 61HISDLA)
Enzyme Reaction (15 min pre-incubation with Parkin, pUb and activator only) • Parkin: 196 nM • pUb: 196 nM • DMSO: 1% DMSO • E1: 5 nM • E2: 50 nM • Ubiquitin Eu: 8.8 nM • Reaction time: 120 minutes • Temperature: 22° C. • Total volume: 10 μl reaction
Take 10 μl of Enzyme Reaction above and add 10 μl detection Reagent Z under the following conditions:
Assay Procedure: • 1) Load assay plate wells with 4.9 μl 400.0 nM Parkin, 400 nM pUb in reaction buffer by use of Eppendorf 12-channel pipette. • 2) Deliver 0.1 μl 100× activator candidates in DMSO by use of Echo 555 compound dispenser. Highest 100× concentration=100 μm and then twofold dilutions. Add each compound and control in duplicate wells. • 3) Spin 1000 rpm, 2 minutes, at room temp. • 4) Incubate plate for 15 minutes at room temp. • 5) Add 5 μl 10 nM E1, 100 nM E2, 17.6 nM Ubiquitin Eu and 2 mM ATP in Reaction Buffer by use of Eppendorf 12-channel pipette. • 6) Spin 1000 rpm, 2 minutes, at room temp. • 7) Incubate plate for 120 minutes at room temp. • 8) Add 10 μl 13.4 nM anti his d2 in detection buffer by use of Eppendorf 12-channel pipette. • 9) Spin 1000 rpm, 2 minutes, at room temp. • 10) Incubate plate for 120 minutes at room temp. • 11) Read plates on Perkin Elmer Envision instrument with the following parameters: • LANCE dual laser protocol loaded into the Envision® software • Top Mirror: LANCE/DELFIA Duel/Bias (Bar code 446) • Emission Filter: APC 665 EM (Bar code 205) • 2nd Emission Filter: Europium 615 EM (Bar code 203) • Read 655 nm (channel 1) and 615 nm (channel 2) wavelengths on Envision®
Data Analysis: The Data can be read in CSV files. There are two tables in those CSV files, which are the values of 655 nm (channel 1) and 615 nm (channel 2) wavelengths respectively. The data is converted to an HTRF Ratio=(Channel 1/Channel 2)*10,000
The average of all the 0 uM controls (DMSO only)=BKGD (Background—0% activation). Subtract BKGD from each HTRF Ratio value=HTRF-BKGD. The average of all the […] control activator in DMSO controls=Max (100% activation). The following equation is then used to calculate % Activation for each well/candidate as follows: % Activation=(HTRF-BKGD/Max)*100. […]
On the technique in general: TR-FRET usually uses a lanthanide donor and a delayed reading to cut background.

Chain of Parkin (O60260 whole entry, other chains not shown): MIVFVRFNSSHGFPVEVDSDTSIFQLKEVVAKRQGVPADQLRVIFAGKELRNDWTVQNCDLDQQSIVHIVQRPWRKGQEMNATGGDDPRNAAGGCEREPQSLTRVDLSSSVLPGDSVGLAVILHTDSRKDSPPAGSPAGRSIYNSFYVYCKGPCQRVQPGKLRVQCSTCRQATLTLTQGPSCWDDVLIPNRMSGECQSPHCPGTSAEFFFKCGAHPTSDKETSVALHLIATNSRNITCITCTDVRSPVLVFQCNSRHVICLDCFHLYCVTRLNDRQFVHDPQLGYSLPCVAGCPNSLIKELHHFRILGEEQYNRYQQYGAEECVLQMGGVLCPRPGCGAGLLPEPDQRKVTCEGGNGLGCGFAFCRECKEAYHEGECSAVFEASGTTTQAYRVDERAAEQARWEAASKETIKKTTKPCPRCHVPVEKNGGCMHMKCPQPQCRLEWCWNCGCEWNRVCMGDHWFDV

As for `O=C(Nc1nc(Nc2cc(N3CCCC3)nc3ccccc23)n(-c2ccccc2)n1)c1ccccc1` [Compound A1], the EC50 is greater than 40 µM.
As for `O=C(Nc1nc(NC(=O)c2cc3ccccc3s2)n(-c2ccccc2)n1)c1ccccc1` [Compound A2], the EC50 was greater than 40 µM.
For `O=C(Nc1nc(NC(=O)c2ccccc2)n(-c2ccccc2)n1)c1ccccc1` [Compound A, N,N′-(1-phenyl-1H-1,2,4-triazole-3,5-diyl)dibenzamide], the “Parkin activity in an auto-ubiquitination assay” value was “increases” and the EC50 was 2.3 µM.
With `O=C(Nc1nc(Nc2nc(N3CCCC3)c3ccccc3n2)n(-c2ccccc2)n1)c1ccccc1` [Compound B1], the concentration giving a half-maximal response (EC50) is greater than 40 µM.
The same measure, in the same setting: to `O=C(Nc1nc(NC(=O)c2ccc3ccccc3n2)n(-c2ccccc2)n1)c1ccccc1` [Compound B2] belongs greater than 40 µM; to `CC(=O)Nc1nc(NC(C)=O)n(-c2ccccc2)n1` [Compound B], greater than 40 µM.
Turning to `O=C(Nc1nc(Nc2ncnc3ccccc23)n(-c2ccccc2)n1)c1cccs1` [Compound C1], the EC50 is greater than 100 µM.
With `Cc1ccccc1C(=O)Nc1nc(NC(=O)/C=C/c2ccccc2)n(-c2ccccc2)n1` [Compound C2], the EC50 is greater than 40 µM.
Take `O=C(/C=C/c1ccccc1)Nc1nc(NC(=O)c2ccccc2)nn1-c1ccccc1` [Compound C, N-(5-cinnamamido-1-phenyl-1H-1,2,4-triazol-3-yl)benzamide]: the “Parkin activity in an auto-ubiquitination assay” value is on record as “increases” and the EC50 was greater than 40 µM.
Regarding `CN1CCC(C(=O)Nc2nc(Nc3ncnc4ccccc34)n(-c3ccccc3)n2)CC1` [Compound D1], the EC50 was greater than 40 µM.
The same measure, in the same setting: the same measure for `O=C(Nc1nc(NC(=O)c2ccccc2)n(-c2ccc3ccccc3n2)n1)c1ccccc1` [Compound D2]: greater than 40 µM; for `O=C(Nc1nc(Nc2nc(O)nc3ccccc23)n(-c2ccccc2)n1)c1ccccc1` [Compound E1]: greater than 40 µM; for `O=C(Nc1nc(NC(=O)c2ccccc2)n(-c2ccc3c(c2)OCCO3)n1)c1ccccc1` [Compound E2]: greater than 40 µM.
On the same count and under the same terms, the same measure for `O=C(Nc1nc(NC(=O)c2ccccc2)n(-c2ccc(I)cc2)n1)c1ccccc1` [Compound E, N-[5-benzamido-1-(4-iodophenyl)-1,2,4-triazol-3-yl]benzamide]: greater than 40 µM; for `CCN(CC)c1cc(Nc2nc(NC(=O)c3ccccc3)nn2-c2ccccc2)ncn1` [Compound F1]: greater than 40 µM.
Same read-out and setting: the same measure for `COc1ccc(-n2nc(NC(=O)c3ccccc3)nc2NC(=O)c2ccccc2)cc1` [Compound F2]: greater than 40 µM; for `Cc1ccccc1C(=O)Nc1nc(NC(=O)c2ccccc2C)n(-c2ccccc2)n1` [Compound F, 2-methyl-N-[5-[(2-methylbenzoyl)amino]-1-phenyl-1,2,4-triazol-3-yl]benzamide]: greater than 40 µM; for `O=C(Nc1nc(Nc2cc(N3CCCC3)ncn2)n(-c2ccccc2)n1)c1ccccc1` [Compound G1]: greater than 40 µM.
For `O=C(Nc1nc(NC(=O)c2cccs2)nn1-c1ccccc1)c1ccccc1` [Compound G2], the EC50 was greater than 40 µM.
The same measure, in the same setting: the same measure for `O=C(Nc1nc(Nc2ccncn2)n(-c2ccccc2)n1)c1ccccc1` [Compound H1]: greater than 40 µM.
Take `Cc1ccccc1C(=O)Nc1nc(NC(=O)c2ccccc2)n(-c2ccccc2)n1` [Compound H]: the EC50 was greater than 40 µM.
With `O=C(Nc1nc(Nc2ccnc3ccccc23)n(-c2ccccc2)n1)c1ccccc1` [Compound I1], the EC50 was greater than 40 µM.
Same read-out and setting: the same measure for `O=C(Nc1nc(NC(=O)c2ccccc2)n(C2CCOCC2)n1)c1ccccc1` [Compound I2]: greater than 40 µM; for `Nc1nc(Nc2nc(NC(=O)c3ccccc3)nn2-c2ccccc2)c2ccccc2n1` [Compound J1]: greater than 40 µM.
The same measure, in the same setting: the same measure for `O=C(Nc1nc(NC(=O)c2ccccc2)n(-c2ccc3ncccc3c2)n1)c1ccccc1` [Compound J2]: greater than 40 µM.
Still for that read-out and setting: the same measure for `CC(C)C(=O)Nc1nc(Nc2ncnc3ccccc23)n(-c2ccccc2)n1` [Compound K1]: greater than 40 µM.
As to `Cc1ccccc1C(=O)Nc1nc(NC(=O)c2cccs2)nn1-c1ccccc1` [Compound K2], the EC50 was greater than 40 µM.
Turning to `Cc1ccccc1C(=O)Nc1nc(NC(=O)c2ccccc2)nn1-c1ccccc1` [Compound K, N-(5-benzamido-2-phenyl-1,2,4-triazol-3-yl)-2-methyl-benzamide], the concentration for a half-maximal effect (EC50) is greater than 40 µM.
The same measure, in the same setting: the same measure for `C/C=C/C(=O)Nc1nc(Nc2ncnc3ccccc23)n(-c2ccccc2)n1` [Compound L1]: greater than 40 µM; for `C=CC(=O)Nc1nc(NC(=O)c2ccccc2)nn1-c1ccccc1` [Compound L2]: greater than 40 µM.
Still for that read-out and setting: the same measure for `O=C(Nc1nc(Nc2ncnc3ccccc23)n(-c2ccccc2)n1)c1ccccc1` [Compound L, N-[1-phenyl-5-(quinazolin-4-ylamino)-1,2,4-triazol-3-yl]benzamide]: greater than 40 µM; for `C=C(C)C(=O)Nc1nc(Nc2ncnc3ccccc23)n(-c2ccccc2)n1` [Compound M1]: greater than 40 µM.
Same read-out and setting: to `O=C(Nc1nc(NC(=O)c2nc3ccccc3s2)n(-c2ccccc2)n1)c1ccccc1` [Compound M2] belongs greater than 40 µM.
For `Nc1nc(Nc2nc(NC(=O)c3ccccc3)nn2-c2ccccc2)nc2ccccc12` [Compound N1], the EC50 is greater than 40 µM.
Same read-out and setting: to `O=C(Nc1nc(Nc2nc(O)c3ccccc3n2)n(-c2ccccc2)n1)c1ccccc1` [Compound O1] belongs greater than 40 µM; to `O=C(Nc1nc(NC(=O)c2ccccc2)n(-c2cccc3cccnc23)n1)c1ccccc1` [Compound O2], greater than 40 µM.
Regarding `O=C(Nc1nc(NC(=O)c2ccccc2)n(-c2cccc3ncccc23)n1)c1ccccc1` [Compound P2], the 50% effective concentration (EC50) was greater than 40 µM.
Regarding `Cc1ccccc1C(=O)Nc1nc(-c2ccccn2)nn1-c1ccccc1` [Compound Q2], the EC50 is greater than 40 µM.
Turning to `Cc1ccccc1C(=O)Nc1nc(Nc2ncnc3ccccc23)n(-c2ccccc2)n1` [Compound R2], the concentration giving a half-maximal response (EC50) was greater than 40 µM.
The same measure, in the same setting: to `Cc1ccccc1C(=O)Nc1nc(-c2ccncc2)nn1-c1ccccc1` [Compound S2] belongs greater than 40 µM; to `Cc1ccccc1C(=O)Nc1nc(-c2cccnc2)nn1-c1ccccc1` [Compound T2], greater than 40 µM.
Regarding `O=C(/C=C/c1ccccc1)Nc1nc(NC(=O)c2ccccc2)nn1-c1ccccn1` [Compound U1], the EC50 was greater than 40 µM.
For `c1ccc(-n2nc(-c3ccccn3)nc2Nc2ncnc3ccccc23)cc1` [Compound U2], the EC50 is greater than 40 µM.
For the compound `O=C(Nc1nc(NC(=O)c2cccc([N+](=O)[O-])c2)n(-c2ccccc2)n1)c1ccccc1` [Compound V1], the EC50 was greater than 40 µM.
On the same count and under the same terms, to `Cc1ccccc1C(=O)Nc1nc(C2CCOCC2)nn1-c1ccccc1` [Compound V2] belongs greater than 40 µM; to `O=C(Nc1nc(NC(=O)c2ccco2)n(-c2ccccc2)n1)c1ccccc1` [Compound W1], greater than 40 µM; to `Cc1ccccc1C(=O)Nc1nc(NC(=O)c2ccccc2C)n(C(C)C)n1` [Compound W2], greater than 40 µM.
